From US20250367191A1, “TREATMENT OF MITOCHONDRIAL DISEASES WITH A CNS-PENETRANT SGC STIMULATOR ZAGOCIGUAT” (Tisento Therapeutics Inc., priority 2022, published 2025)

Tests used:
[1] = Open-label single-arm study in MELAS (NCT04475549): safety and tolerability; type: in vivo, human; settings: 15 mg QD for 29 days, patients with MELAS
Text: This study was completed at 5 investigative sites in the United States. 8 participants completed the study. This study was an open-label, single-arm study evaluating the safety, tolerability, PK, and pharmacodynamics (PD) of Compound I when administered for up to 29 days to participants diagnosed with MELAS. Because this was the first study evaluating Compound I in a patient population, the primary objective was safety and tolerability. The overall study duration for participants was a maximum of 75 days, including the screening, treatment and follow up periods (ClinicalTrials.gov identifier NCT04475549).
The primary objective of the trial was to evaluate the safety and tolerability of Compound I when administered to a patient population of subjects with MELAS, by measuring AEs, SAEs and TEAEs leading to drug discontinuation.
Compound I is a CNS-active investigational drug. Although Compound I and other similar drugs in this class have not been associated with an increased risk of suicidal thinking or behavior, it was considered it important to monitor for such ideation or behavior before and during this clinical study. Therefore, participants were appropriately monitored and closely observed for suicidal ideation and behavior or any other unusual change in behavior. […]
A complete physical examination was to include examination and assessment of the following: general appearance, lymph nodes, nervous system; cardiovascular system; head, eyes, ears, nose, throat and skin; respiratory system, neck, mental status, abdomen/liver/spleen and musculoskeletal system. […] Clinically relevant findings that were present before study drug initiation on Day 1 were recorded as part of the participant's medical history. Beginning after study drug initiation on Day 1, new clinically relevant findings or worsening of an earlier finding were recorded as an AE. Height (cm) was measured only at Screening. Weight (kg) was recorded throughout the study. Body mass index was calculated and recorded at Screening.
All BP and pulse measurements were obtained with an automated BP device (left arm was preferred) prior to blood draws (or ≥10 m after a blood draw, if necessary). Supine BP was taken at Screening (only) and recorded as the average of 2 measurements obtained at 2-minute intervals after the participant had rested quietly in a semi-recumbent/supine position for ≥5 minutes. Orthostatic vital signs were taken at all scheduled visits and participant was to rest quietly in a supine/semi-recumbent position for ≥5 minutes before supine BP and pulse measurements were recorded, then assume sitting position for ≥1 minute, and finally assume a standing position for 2 (±1) minutes before standing measurements were recorded. […]

rodent = settings: single dose; cited from earlier work
[2] = system: participants diagnosed with MELAS; test: MELAS study: fMRI-BOLD during resting state and visual stimulus; type: in vivo, human
Method: Two exploratory functional neuroimaging modalities, arterial spin labeling (ASL) and functional magnetic resonance imaging (fMRI), were used to measure the potential PD effects of Compound I in the brain. While ASL quantifies regional CBF during the resting state, fMRI is a relative measure based on the blood-oxygen-level-dependent (BOLD) effect and was conducted during both a resting state and during a visual stimulus to measure brain activity.
Each individual MRI scanning session took approximately 45 minutes (maximum of ˜1 hour).

[3] = system: participants diagnosed with MELAS; test: MELAS study: patient-reported outcomes (PGIC, MFIS, PROMIS); type: in vivo, human
Text: The Patient-reported Outcomes Measurement Information System (PROMIS) Item Bank v2.0—Cognitive Function is a self-administered questionnaire that assesses multiple aspects of mental fatigue and cognitive function in the past 7 days prior to the administration of the questionnaire. It uses a Likert-type rating scale (eg, “Never” to “Very often”).
The Patient Global Impression of Change (PGIC) is a single-item questionnaire that assesses the participant's perception of change in his/her overall health status since the start of the study using a Likert-type rating scale (eg, “Very much improved” to “Very much worse”).
The Modified Fatigue Impact Scale (MFIS) is a self-administered questionnaire that assesses the impact of fatigue in terms of physical, cognitive, and psychosocial functioning over the past 4 weeks. Patients respond using a Likert-type rating scale. (eg, “Never” to “Almost always”).

[4] = system: mitochondrial disease patient cells; settings: cited from earlier work
rats [5] = settings: cited from earlier work
rats [6] = settings: cited from earlier work; remark: listed apart in the source

In the case of `Fc1ccccc1Cc1nc(-c2nc(C(F)(F)F)n[nH]2)cn2ccnc12` [Compound I, zagociguat], the SAEs [1] is reported as “no SAEs observed”, the “adverse events leading to treatment discontinuation” value [1] is reported as “no adverse events leading to treatment discontinuation” and the “safety signals on clinical labs, vital signs, ECGs, or suicidal rating scale” value [1] is reported as “No safety signals”. The tolerability [1] was “well tolerated”, the fMRI-BOLD signals (rodent) was “increased fMRI-BOLD signals” and the “levels of cGMP in the CNS” value (rodent) was “increased levels of cGMP in the CNS”. For the same compound, the “qEEG gamma-band oscillatory power” value (rodent) was “elevated qEEG gamma-band oscillatory power”, the “task-based functional MRI (visual activation, flashing checkerboard)” value ([2]; Day 29 compared to screening and Day 1) was “increased activation of voxels in the occipital region” and the “task-free functional MRI during resting state, connectivity” value ([2]; Day 29 compared to screening and day 1) was “enhanced connecitivity”. For the same compound, the “participants reporting improvement in their disease (PGIC)” value ([3]; 8 participants) was “Three of the 8”, the “participants reporting no change in their disease (PGIC)” value ([3]; 8 participants) was 4 and the “participants reporting their disease as much worse (PGIC)” value ([3]; 8 participants) was 1. For the same compound, the “changes in MFIS and PROMIS at the study level” value ([3]; Day 29) was “not observed”, the “abundance of available adenosine triphosphate (ATP)” value ([4]; mitochondrial disease patient cells) was “increasing the abundance of available adenosine triphosphate (ATP)” and the “expression levels of DDAH2” value ([4]; patient cells) was “increased expression levels”. For the same compound, the “expression levels of TFAM” value ([4]; patient cells) was “increased expression levels”, the “gamma power in combination with donepezil” value (rats [5]; 10 mg/kg orally + 1 mg/kg donepezil, 1-2 hours post-dose) was “further increased” and the “qEEG gamma oscillations / gamma power compared to vehicle dosing” value (rats [5]; oral suspension) was “increasing gamma oscillations”. For the same compound, the gamma power (rats [5]; orally at 10 mg/kg) was “increased gamma power”, the “brain metabolite NAA+NAAG deficits” value (rats [6]; chronic dosing) was “reversed” and the dendritic spine density (rats [6]; chronic dosing) was “improved dendritic spine density”. For the same compound, the “hippocampal long term potentiation (LTP)” value (rats [6]; chronic dosing) was “restored”, the behavioral task performance (rats [6]; pharmacologically impaired rats) was “improved behavioral task performance” and the “neurotrophic factors pCREB and BDNF” value (rats [6]; rat, in vivo) was “increased neurotrophic factors”.
